# Laboratory results published in patent publication US5565489A, “Epoxycyclohexenedione derivatives” (Kyowa Hakko Kogyo Co., Ltd., priority 1993, dated 1996).
# Experiments:
# [1] = molecular target: T1, FTase (Rattus norvegicus, UniProt Q02293+Q04631); test: FTase inhibitory activity (farnesylation of v-Ki-ras p21, partially purified rat brain FTase); assay type: biochemical; settings: for IC50: rat brain FTase, v-Ki-ras p21 substrate
# T1 construct: The FTase used for the assay was obtained from rat brain as follows; from tissue; host or cells: male rat brain; ammonium sulfate fraction, Mono Q 10/10, partially purified
# Method: (§1) FTase Inhibitory Activity
# The FTase used for the assay was obtained from rat brain as follows. An extract of minced brain of a male rat was salted out using ammonium sulfate. The fraction obtained at 50% saturation was dissolved in a buffer solution (20 mM Tris-HCl, pH 7.5, 1 mM dithiothreitol (DTT), 20 μM ZnCl2) and further fractionated by column chromatography using a Mono Q 10/10 column. The column was eluted by gradient elution with 0.3 to 0.4 M NaCl. The active fraction eluted at near 0.35 M NaCl, was used as a partially purified preparation. Measurement of the activity was carried out by using the thus prepared enzyme and v-Ki-ras p21 as a substrate. The v-Ki-ras p21, used as a substrate, was obtained by high expression using Escherichia coli, followed by purification according to the method of Tamaoki, et al. [Biochem. Biophys. […] The enzyme inhibitory activity was measured as inhibition of the test compound on farnesylation of the C-terminal of v-ki-ras p21 in the above-mentioned reaction system.
# [2] = tested on: Staphylococcus aureus, Enterococcus faecium, Bacillus subtilis; test: Antimicrobial activity, agar dilution method (summary of Table 4); assay type: cell-based; settings: Table 4 summary
# Method: (§2) Antimicrobial activity was measured by an agar dilution method using a culture medium (pH 7) prepared by dissolving 3 g of Bacto-tryptone (Difco), 3 g of meat extract, 1 g of yeast extract, 1 g of glucose, and 16 g of agar in 1 l of water. The antimicrobial activity was expressed in terms of minimum growth inhibitory concentration (MIC).
# [3] = tested on: NIH 3T3 fibroblasts transformed by oncogene EJ-ras; test: Inhibitory activity on cell growth of NIH 3T3/EJ-ras; assay type: cell-based
# Method: Inhibitory Activity on Cell Growth
# The antitumor activity was measured by using NIH 3T3 fibroblasts transformed by oncogene EJ-ras (hereinafter referred to as "NIH 3T3/EJ-ras").
# NIH 3T3/EJ-ras cells were suspended in a DME medium (Nissui KK) containing 10% fetal bovine serum, penicillin (100 U/ml) and streptomycin (100 μg/ml) (hereinafter referred to as medium A) in a cell concentration of 1.0×10^4 cells/ml. Each well of a […] microtiter plate was inoculated with 0.1 ml of the cell suspension, and the system was monolayer cultured by incubation in a carbondioxide incubator at 37° C. for 24 hours. To each well was added 0.1 ml of a test compound appropriately diluted with medium A, followed by incubation in the carbondioxide incubator at 37° C. for 72 hours. The cells were recovered by trypsinization, and the number of the cells was counted with a cell counter. A concentration of the test compound for 50% inhibition of cell growth (IC50) was calculated.
# [4] = tested on: Bacillus subtilis No. 10707; test: Antimicrobial activity, agar dilution method (BS); assay type: cell-based; settings: pH 7
# Method: as §2
# [5] = tested on: Enterococcus faecium ATCC 10541; test: Antimicrobial activity, agar dilution method (EF); assay type: cell-based; settings: ATCC10541, pH 7
# Method: as §2
# [6] = tested on: Staphylococcus aureus ATCC 6538P; test: Antimicrobial activity, agar dilution method (SA); assay type: cell-based; settings: ATCC6538P, pH 7
# Method: as §2
# [7] = molecular target: T2, FTase (Bos taurus, UniProt P29702+P49355); test: FTase inhibitory activity (farnesylation of C-terminal peptide of lamin B, crude bovine brain enzyme, FTase [^3 H]SPA enzyme assay kit); assay type: biochemical; settings: for inhibitory activity against FTase (in words): Table 2 summary; for IC50: bovine brain enzyme, lamin B C-terminal peptide
# T2 construct: An extract of minced bovine brain was subjected to column chromatography on DEAE-Sephacel (Pharmacia); from tissue; host or cells: bovine brain; DEAE-Sephacel active fraction, crude enzyme solution
# Method: as §1
# An extract of minced bovine brain was subjected to column chromatography on DEAE-Sephacel (Pharmacia). The active fraction was concentrated by ultrafiltration and dialyzed against a mixture of 20 mM Tris-HCl (pH 8.0), 50 mM NaCl, […], 1 mM DTT, 0.2 mM phenylmethylsulfonyl fluoride (PMSF). The resulting dialysate was used as a crude enzyme solution. Measurement of activity was carried out by using the enzyme obtained by the above-mentioned method and an FTase [^3 H]SPA enzyme assay kit (Amersham). Enzyme inhibitory activity was measured as inhibition of farnesylation of the C-terminal peptide of lamin B by the test compound in the above-mentioned reaction system. The enzyme inhibitory activity of a group treated with a test compound of a known concentration was compared with that of a non-treated group to calculate the concentration of the test compound for 50% inhibition of farnesylation (IC50).
# [8] = tested on: FTase; settings: not numerically described; cited from earlier work
# [9] = molecular target: FTase of yeast origin; settings: ras protein of yeast origin as substrate; read-out: IC50 against FTase of yeast origin; cited from earlier work
Structure (SMILES),antimicrobial activity (in words) [2],MIC [4] [µg/mL],MIC [5] [µg/mL],MIC [6] [µg/mL],inhibitory activity against FTase (in words) [7],IC50 [7] [µM],FTase inhibitory activity (in words) [8],further results
"CC(C)=CCC/C(C)=C/CC/C(C)=C/C(=O)NC1=CC(=O)[C@@H]2O[C@@H]2C1=O (relative stereo) [Compound I-1, 4,5-Epoxy-1-farnesoylamino-3,6-dioxocyclohexene]",remarkable antimicrobial activity,0.46,0.46,0.91,obvious inhibitory activity against FTase,21,,"IC50 ([1]; Experiment 1): 18 µM; inhibitory activity against FTase (in words) ([1]; Table 1 summary): obvious inhibitory activity against FTase; inhibitory activity compared with manumycin and compound IVa (in words) ([1]; Table 1 summary, as compared with manumycin and compound IVa): significantly strong as compared with those of manumycin and compound IVa; IC50 ([3]; Mus musculus, NIH3T3, NIH 3T3/EJ-ras, 72 hours): 4.3 µM; inhibitory activity on growth (in words) ([3]; Table 3 summary): obvious inhibitory activity on growth of the NIH 3T3 fibroblasts transformed by oncogene EJ-ras"
"CCCCCCCCCCCC(=O)NC1=CC(=O)C2OC2C1=O (stereo not drawn) [Compound I-2, 4,5-Epoxy-l-lauroylamino-3,6-dioxocyclohexene]",remarkable antimicrobial activity,0.08,0.04,> 100,obvious inhibitory activity against FTase,21,,
"CCCCC/C=C\C/C=C\CCCCCCCC(=O)NC1=CC(=O)C2OC2C1=O (stereo not drawn) [Compound I-4, 4,5-Epoxy-1-linoleoylamino-3,6-dioxocyclohexene]",remarkable antimicrobial activity,0.65,0.33,> 100,obvious inhibitory activity against FTase,19,,
"CC(C)=CCC/C(C)=C/CC/C(C)=C/CC/C(C)=C/C(=O)NC1=CC(=O)C2OC2C1=O (stereo not drawn) [Compound I-5, 4,5-Epoxy-1-geranylgeranoylamino-3,6-dioxocyclohexene]",remarkable antimicrobial activity,0.65,0.65,> 100,obvious inhibitory activity against FTase,23,,
"CCCC[C@@H](C)/C=C(C)/C=C(\C)C(=O)NC1=CC(=O)[C@@H]2O[C@@H]2C1=O [IVa, reference compound]",,,,,,,the activity of these compounds can be detected,IC50 ([1]; Experiment 2): 60 µM
CCCCC(C)/C=C(\C)C(=O)NC1=CC(=O)[C@@H]2O[C@@H]2C1=O (stereo partly drawn) [IVb],,,,,,,the activity of these compounds can be detected,
CCCCC(C)/C=C(C)/C=C/C(=O)NC1=CC(=O)[C@@H]2O[C@@H]2C1=O (stereo partly drawn) [IVc],,,,,,,the activity of these compounds can be detected,
"CCCC[C@@H](C)/C=C(C)/C=C(\C)C(=O)NC1=C[C@](O)(/C=C/C=C/C=C/C(=O)NC2=C(O)CCC2=O)[C@@H]2O[C@@H]2C1=O [Manumycin, reference compound]",,,,,,,,IC50 ([1]; Experiment 1): 76 µM; IC50 ([1]; Experiment 2): 35 µM; IC50 [9]: 5 µM
